Results: patent publication US20230312584A1, “SALT OF NUCLEOSIDE ANALOG, AND CRYSTAL FORM, PHARMACEUTICAL COMPOSITION AND USE THEREOF” (priority 2020, published 2023)

Legend:
[1] = test system: beagle dogs; assay: Toxicity test of beagle dogs by intragastric administration for 14 days and drug withdrawal for 14 days; type: in vivo
Experimental: (§1) The safety of the hydrobromide of Compound Z in SD rats and beagle dogs was evaluated in accordance with the “Good Laboratory Practice” (2017) issued by the National Medical Products Administration (NMPA), and the acute toxicity test and 14-day long-term toxicity test were carried out, respectively.
(§2) Test method: 40 beagle dogs were randomly divided into 4 groups, 10 dogs in each group, half male and half female. The dogs were given an intragastric administration of a solvent of PEG400/Kolliphor® HS15/ultrapure water (40/10/50, v/v/v) and the hydrobromide (30, 100 and 250 mg/kg) of Compound Z dissolved in the solvent, respectively, once a day for 14 consecutive days; three-fifths of the animals in each group (6 animals in each group, half male and half female) were dissected after the end of the administration period (day 15); the remaining animals in each group (4 animals in each group, half male and half female) were dissected at the end of the 14-day recovery period (day 29). The following indexes were observed, measured and evaluated: clinical observations, ophthalmological examination, body weight, feed consumption, body temperature, electrocardiogram (HR, PR interval, QRS interval, T wave amplitude, QT interval and QTcV interval), clinical Pathology (hematology, blood coagulation, plasma biochemistry, urine), pathological examination (morphological observation by naked eyes, organ weight, histopathological examination).

[2] = as above; type: in vivo; conditions: both sexes, dog, in vivo, po; beagle dogs, males and females, intragastric once a day for 14 consecutive days, 14 days recovery; read-out: no-observed-adverse-effect level (NOAEL)
Experimental: as §1, §2

[3] = test system: SD rats; assay: Toxicity test of a single intragastric administration to SD rats; type: in vivo; conditions: SD rats, single intragastric 200, 600 and 2000 mg/kg, 14 days observation
Experimental: as §1
(§3) Method: 40 SD rats were randomly divided into 4 groups, 10 rats in each group, half male and half female. The rats were given a single intragastric administration of a solvent of PEG400/Kolliphor® HS 15/ultrapure water (40/10/50, v/v/v) and the hydrobromide of Compound Z (200, 600 and 2000 mg/kg, based on the free base) dissolved in this solvent, respectively. After administration, observation was continued for 14 days, and dissection was performed on the 15th day as planned. During the test, clinical observations, body weight, feed consumption and anatomical and morphological observations by naked eyes were evaluated.

[4] = as above; type: in vivo; conditions: both sexes, Sprague-Dawley (SD), rat, in vivo, po
Experimental: as §1, §3

[5] = type: physicochemical; conditions: 7 days
Experimental: The test product is placed in suitable clean containers, and then placed under conditions of high temperature (80° C.), high humidity (25° C., relative humidity 92.5%), and light (light intensity 4500±500 1× and 90 μw/cm^2), respectively, for 7 days, and samples are taken on the 7th day and tested according to the stability inspection items.

[6] = Hygroscopicity test; type: physicochemical; conditions: 25° C., RH80%, 24 hours, hydrobromide
Experimental: An appropriate amount of a test product is taken and spread in a glass-stoppered weighing bottle that has been placed in an artificial climate box (temperature is 25° C.±1° C., relative humidity is 80%±2%) for 24 hours. The weighing bottle is opened, put together with the stopper in the artificial climate box (the temperature is 25° C.±1° C., the relative humidity is 80%±2%) for 24 hours, and then taken out. The moisture content of the test product before and after being placed in the artificial climate box is measured, and the hygroscopicity is measured by comparing the change in moisture content.

[7] = test system: beagle dogs; assay: Toxicity test of a single intragastric administration to beagle dogs; type: in vivo; conditions: beagle dogs, single intragastric 50, 250 and 1000 mg/kg
Experimental: as §1
(§4) Method: 8 beagle dogs were randomly divided into 4 groups, 2 dogs in each group, one male and one female. The dogs were given a single intragastric administration of a solvent of PEG400/Kolliphor® HS 15/ultrapure water (40/10/50, v/v/v) and the hydrobromide of Compound Z (50, 250 and 1000 mg/kg, based on the free base) dissolved in this solvent, respectively. After administration, observation was continued for 14 days, and dissection was performed on the 15th day as planned. Clinical observations, body weight, feed consumption, clinical pathology (blood, blood coagulation, plasma biochemistry), and morphological observation by naked eyes were evaluated.

[8] = as above; type: in vivo; conditions: both sexes, beagle, dog, in vivo, po
Experimental: as §1, §4

[9] = physchem; type: physicochemical; conditions: 37 °C, water, thermodynamic from solid, Solubility in water
Experimental: About 10 mg of the test product is taken and put in a 1.5 mL sample tube, to which 1 mL of deionized water is added, and then the sample tube is placed in a constant temperature mixer and shaken at 37° C. for 30 minutes; after shaking, the sample tube is placed in a centrifuge to undergo centrifugation for 2 minutes. Then, 500 μL of the supernatant is taken and diluted with acetonitrile to an appropriate concentration, which is used as a test sample solution for HPLC analysis.
An appropriate amount of sample was weighed and put in a glass test tube, to which a selected solvent was gradually added. The clarification process was observed.

[10] = test system: SD rats; assay: in vivo; conditions: both, Sprague-Dawley (SD), rat, 600 mg/kg, 14 days
Experimental: as §1
(§5) Method: 120 SD rats were randomly divided into 4 groups, 30 rats in each group, half male and half female. The rats were given an intragastric administration of a solvent of PEG400/Kolliphor® HS15/ultrapure water (40/10/50, v/v/v) and the hydrobromide (100, 300 and 600 mg/kg) of Compound Z dissolved in the solvent, respectively, once a day for 14 consecutive days; two-thirds of the animals in each group (20 animals in each group, half male and half female) were dissected after the end of the administration period (day 15); the remaining animals in each group (10 animals in each group, half male and half female) were dissected at the end of the 14-day recovery period (day 29). The following indexes were observed, measured and evaluated: clinical observations, body weight, feed consumption, ophthalmological examination, hematology, blood coagulation, plasma biochemistry and plasma electrolytes, urinalysis, anatomical and morphological observation by naked eyes, organ weight and histopathological examination, and the accompanying rat bone marrow micronucleus test.

[11] = in vivo; design: species or system SD rats; conditions: both sexes, Sprague-Dawley (SD), rat, po
Experimental: as §1, §5

[12] = listed as Hydrobromide of Compound Z with crystal form A

SMILES: Br.[2H]c1cc([C@]2(C#N)O[C@H](COC(=O)C(C)C)[C@@H](OC(=O)C(C)C)[C@H]2OC(=O)C(C)C)n2ncnc(N)c12 [Hydrobromide of Compound Z, (2R,3R,4R,5R)-2-(4-aminopyrrolo[2,1-f][1,2,4]triazin-7-yl-5-d)-2-cyano-5-(isobutyryloxymethyl)tetrahydrofuran-3,4-diyl bis(2-methylpropanoate) hydrobromide]
- adverse drug reactions ([1]; beagle dogs, 250 mg/kg and 100 mg/kg intragastric once a day for 14 days): adverse drug reactions in ophthalmological examination, clinical pathology, pathological examination, and the like could be observed
- accidental death ([1]; beagle dogs, 30, 100 and 250 mg/kg intragastric once a day for 14 days): no accidental death
- various indexes at the end of the recovery period ([1]; beagle dogs, after 14-day recovery period): returned to normal or showed a recovery trend
- NOAEL at 14 days [2]: 30 mg/kg
- early death or euthanasia [3]: no early death or euthanasia
- MTD at 14 days [4]: ≥ 2000 mg/kg
- Stability [5]: Good stability under high temperature (80° C.), high
- Hygroscopicity [6]: None
- increase in moisture content [6]: no increase
- Hygroscopicity [6, 12]: no hygroscopicity
- increase in moisture content [6, 12]: RH80%, with an increase in moisture content of <0.1%,
- Hygroscopicity ([6]; listed as hydrobromide of Compound Z with crystal form A): no hygroscopicity
- Hygroscopicity ([6]; listed as hydrobromide of Compound Z): no hygroscopicity
- accidental death [7]: no accidental death
- MTD at 14 days [8]: ≥ 1000 mg/kg
- solubility at 30 min [9]: 410 µg/mL
- death [10]: two animals in the 600 mg/kg dose group died
- NOAEL at 14 days [11]: 100 mg/kg
